Test [1] deals with galium (catchweed bedstraw, Galium aparine). Briefly: Test C plant response. In kind it is in vivo. The note with it: Preemergence, scale 0 to 100.
In another test the test system is kochia (Kochia scoparia). Description: Test C plant response. In kind it is in vivo. The following applies: Preemergence, scale 0 to 100.

The record followed here is US8952024B2, “Herbicidal pyrimidone derivatives” (E I du Pont de Nemours and Company, priority 2009, dated 2015).

For the compound `O=C1CCCC(O)=C1C(=O)c1cnc(-c2ccccc2)n(-c2ccccc2)c1=O` [Compound 2, 5-[(2-hydroxy-6-oxo-1-cyclohexen-1-yl)carbonyl]-2,3-diphenyl-4(3H)-pyrimidinone], the “Plant response rating: Galium” value in test [1] (62 g ai/ha) was found to be 0; in test [1] (125 g ai/ha), 50. Further, the “Plant response rating: Kochia” value in the test on kochia (Kochia scoparia) (62 g ai/ha) is recorded as 30; in the test on kochia (Kochia scoparia) (125 g ai/ha) it was 90; in the test on kochia (Kochia scoparia) (16 g ai/ha) it was 5; with kochia (Kochia scoparia) (31 g ai/ha), 5.
